Broadly, the IC50 is the concentration that inhibits the measured activity by half. A lower IC50 goes with inhibition by little substance.

The test system of this assay is P. falciparum 3D7 growth, pLDH absorbance. Description: blood-stage malaria parasite growth potency – strain 3D7, dose response (AID 2305).
`O=C(c1ccc(F)c(F)c1)N1CCOC(CCN2CCC(c3ccccc3)CC2)(c2ccc(Cl)c(Cl)c2)C1` (configuration not stated) registered an IC50 of 1040 nM.

As to `O=C(Nc1ccc(-c2ccccc2)cc1)Nc1cccc(OCCN2CCCC2)c1`, the IC50 is 930 nM.

Molecule `CN(c1ccc(NC(=O)Nc2cccc(Cl)c2)cc1)c1ccnc(N)n1` returned an IC50 of 630 nM.

`O=C(NCCN1CCOCC1)c1ccc(-c2ccc(CNCCCc3ccccc3)cc2)nc1`: the IC50 was 780 nM.

Molecule `Cc1cccc2[nH]c(-c3ccc(-c4ccc(CN5CCN(C6CCN(C)CC6)CC5)cc4)cc3)nc12` yielded an IC50 of 100 nM.

Regarding `C[C@@H]1C[C@@H]([C@H](O)CC2CC(=O)NC(=O)C2)C(=O)[C@@H](C)C1`, the IC50 was 530 nM.

Turning to `CC1CN(S(=O)(=O)c2ccc(NC(=O)c3cc(-c4ccccc4O)n[nH]3)cc2)CC(C)O1` (configuration not stated), the IC50 turned out to be 830 nM.

The molecule `OCCN1CCN(C(=S)Nc2ccccc2)CC1` had an IC50 of 940 nM.

As for `CCc1cc2c(cc1CC)CC(NC[C@@H](O)c1ccc(O)c3[nH]c(=O)ccc13)C2`, the IC50 was determined as 1120 nM.

Take `CCCC(C(=O)OCCN(CC)CC)(c1ccc(Cl)cc1)c1ccc(Cl)cc1`: the IC50 came to 880 nM.

In turn, `CC(CCCCC(=O)Nc1ccc(C(F)(F)F)cc1)NCC(O)c1cccc(Cl)c1` (configuration not stated) gave an IC50 of 280 nM.

`CNC(=O)c1cnc(Nc2ccc(N3CCN(C)CC3)cc2)nc1Nc1ccccc1OC` showed an IC50 of 930 nM.

Turning to `CN1CC=C(c2c[nH]c3ccc(OC(=O)c4ccccc4)cc23)C1`, the IC50 amounted to 800 nM.

Turning to `CN(C)Cc1ccc(-c2ccc(NC(=O)c3ccc4c(=O)n(Cc5ccccc5)cnc4c3)cc2)cc1`, the IC50 amounted to 650 nM.

Turning to `CCCCc1cc(Cc2cnc(N)nc2N)cc(OC)c1OC`, the IC50 stood at 1040 nM.

The molecule `Cc1ccc(C(=O)Nc2ccc(-c3nc4ccccc4[nH]3)cc2)cc1S(=O)(=O)N1CCOCC1` came in with an IC50 of 1210 nM.

In turn, `CCOc1ccccc1CNc1nccc(NCCc2cn(C)c3ccccc23)n1` gave an IC50 of 1260 nM.

`COc1ccc2nccc([C@@H](O)CN3CC[C@H](NCc4nc5c(cc4F)SCC(=O)N5)[C@H](F)C3)c2c1` displayed an IC50 of 730 nM.

Turning to `Oc1ccc2[nH]cc(C3CCN(CCC(c4ccccc4)c4ccccc4)CC3)c2c1`, the IC50 turned out to be 990 nM.

`COc1ccc(NC(=O)c2cn(-c3ccc(C(C)(C)C)cc3)nc2C)cc1N1CCN(C)CC1` had an IC50 of 950 nM.

Consider `CC1=C(C(=O)OC(C)C)C(c2ccccc2Cl)C2=C(CC(c3ccccc3)CC2=O)N1` (configuration not stated), for which the IC50 was found to be 850 nM.

In the case of `CC(C)c1ccc(CN2CCCCC(NC(=O)c3cc(-c4ccccc4Cl)cs3)C2)cc1` (configuration not stated), the IC50 was 1120 nM.

Take `O=C(C=Cc1ccc(Cl)c(Cl)c1)NCCCCCN1CCC(CCNC(=O)/C=C/c2ccccc2)CC1`: the IC50 was 780 nM.

As for `Nc1nccc2ccc(-c3cccc4ncccc34)cc12`, the IC50 is 50 nM.

The molecule `CS(=O)(=O)c1ccc(CCNCc2ccc(-c3ccc(CN(C(=O)C4CC(=O)c5ccccc54)C4CCN(Cc5ccccc5)CC4)cc3)nc2)cc1` (configuration not stated) came in with an IC50 of 590 nM.

As to `Cn1c(NC2=NC3(c4ccccn4)N=C(Nc4nc5ccccc5n4C)NC3(c3ccccn3)N2)nc2ccccc21` (configuration not stated), the IC50 stood at 1040 nM.

Molecule `O=C(Nc1cccc(CN2CCCN(Cc3ccc(O)cc3)CC2)c1)c1cc2ccccc2o1` yielded an IC50 of 1200 nM.

In turn, `O=C(NC1c2ccccc2Oc2ccccc21)c1ccccc1O` returned an IC50 of 840 nM.

With `O=C(c1ccc(-c2ccc(-c3nc4ccc(C(F)(F)F)cc4[nH]3)s2)cc1)N1CCN(CCc2ccccc2)CC1`, the IC50 stood at 590 nM.

The molecule `CCCCCCCN(Cc1ccc(OC(C)(C)C(=O)OCC)cc1)C(=O)Nc1ccc(Cl)cc1OCC` registered an IC50 of 820 nM.

Consider `COc1ccc(NC(=O)Nc2cc(C)nc3ccccc23)cc1Cl`, for which the IC50 is 690 nM.

Molecule `COCCN1CCN(Cc2cccc(-c3ccc(-c4nc5ccccc5[nH]4)cc3)c2)CC1` yielded an IC50 of 760 nM.

`CCCCOC(C(=O)OCC1CCCN1C)(c1ccccc1)c1ccccc1` (configuration not stated) came in with an IC50 of 790 nM.

For `Cc1ccc(C2(C)CC(C)(C)N(C(=O)COc3ccc4ccccc4c3)c3ccccc32)cc1` (configuration not stated), the IC50 came to 110 nM.

As to `CN1CCN(CCCN(Cc2cccc(-c3ccc(CNCc4ccc5c(c4)OCO5)cc3)c2)C(=O)Nc2ccccc2)CC1`, the IC50 was 680 nM.

`CC1CN(Cc2ccc(-c3cccc(-c4nc5ccc(F)cc5[nH]4)c3)cc2)CC(C)O1` (configuration not stated) showed an IC50 of 920 nM.

The molecule `CCCCCCCCCN(CCC)C(=O)[C@@H]1OC(C(=O)OC(c2ccccc2)c2ccccc2)=C[C@H](NC(=O)OC(C)(C)C)[C@H]1NC(C)=O` had an IC50 of 640 nM.

Consider `COc1cc(Cc2cnc(N)nc2N)cc(OCCCCNS(=O)(=O)C(F)(F)F)c1OC`, for which the IC50 is 1040 nM.

Regarding `CN1[C@@H]2CC[C@H]1c1cc(NC(=O)c3cc(-c4ccc(Cl)cc4)cs3)ccc12`, the IC50 amounted to 1300 nM.

Turning to `N=C(N)c1ccc2[nH]c(-c3cc4cc(C(=N)N)ccc4o3)cc2c1`, the IC50 was determined as 180 nM.

Take `O=C(/C=C/c1ccc(Cl)c(Cl)c1)NCCCCCN1CCC(NC(=O)NC2CCCCCC2)CC1`: the IC50 was found to be 460 nM.

In turn, `COc1ccc(Cn2c(Nc3cccc(C(F)(F)F)c3)nc3cc(C(=O)NCCN4CCCC4)ccc32)cc1Cl` had an IC50 of 830 nM.

For `CC(=O)N(C)C1CCN(Cc2ccc(-c3ccc(-c4nc5ccc(F)cc5[nH]4)s3)cc2)C1` (configuration not stated), the IC50 is 970 nM.

With `COc1ccc(-c2cnc3[nH]cc(-c4ccncc4)c3c2)cc1OC`, the IC50 was determined as 130 nM.

`CCN(CC(C)O)C(=O)c1ccc(-c2cccc(-c3nc4c(C)cccc4[nH]3)c2)cc1` (configuration not stated): the IC50 was 640 nM.

As to `O=C(/C=C/c1ccc(F)cc1)NC1CCC(CCN2CCCN(c3ccc(C(F)(F)F)cn3)CC2)CC1` (configuration not stated), the IC50 was 1080 nM.

In the case of `CC(Cc1ccc(NC(=O)c2ccc(CC(C)NCc3ccc(Cl)c(Cl)c3)cc2)cc1)NCCc1cccc(Cl)c1` (configuration not stated), the IC50 was 1000 nM.

`COc1ccc(CNC(=O)NC2CCN(c3ccnc(Nc4ccc(F)cc4)n3)C2)cc1` (configuration not stated) had an IC50 of 840 nM.

On to `Cc1ccc(NC(=O)Nc2ccccc2F)cc1-c1ccc(C(=O)Nc2ccncc2)cc1`, for which the IC50 amounted to 560 nM.

Take `N#Cc1cncc(-c2nc3c(N4CCN(c5cnccn5)CC4)cccc3n2CCNCc2ccccc2)c1`: the concentration for half-maximal inhibition (IC50) was determined as 910 nM.

Turning to `COc1ccc(Cl)cc1N1CCN(CCCNC(=O)c2ccc(-c3nc4ccncc4[nH]3)c(Br)c2)CC1`, the IC50 is 1150 nM.

As for `Clc1cccc(C=NNc2ccnc3ccccc23)c1`, the concentration for half-maximal inhibition (IC50) stood at 850 nM.

In turn, `O=C(Cc1cnc[nH]1)Nc1cccc(-c2ccc(-c3nc4ccc(F)cc4[nH]3)cc2)c1` yielded an IC50 of 810 nM.

Molecule `COc1ccc2ncc(F)c(CCN3C[C@H](CNCc4ccc5c(n4)NC(=O)CS5)[C@H](O)C3)c2c1` yielded an IC50 of 780 nM.

Take `CCc1ccc(NC(=O)N(CCCN2CCN(C)CC2)Cc2csc(-c3ccc(CNCc4ccccc4)cc3)n2)cc1`: the IC50 worked out at 1010 nM.

`COc1ccc2nccc(N(C)CC3(O)CCN(CCc4ccc5c(c4)NC(=O)CS5)CC3)c2n1` gave an IC50 of 140 nM.

In the case of `CN=C(Nc1c(Cl)cccc1Cl)N(C)C`, the IC50 was 820 nM.

The molecule `Cc1ccc(C)c(Sc2ccc(NC(=O)CN3CCN(C(=O)c4ccco4)CC3)cc2)c1` registered an IC50 of 720 nM.

In the case of `Cc1ccc2c(=O)c3cc(C)ccc3[nH]c2c1`, the IC50 came to 420 nM.

Consider `CC(CCc1ccccc1)NCC(O)c1cccc([N+](=O)[O-])c1` (configuration not stated), for which the IC50 was 860 nM.

`COc1cc(Nc2ccnc3cc(-c4ccncc4)ccc23)cc(OC)c1OC`: the IC50 came to 1080 nM.

In the case of `Cc1ccc(C(=O)Nc2ccc(C)c(OC3CCN(CCC(C)C)C3)c2)cc1` (configuration not stated), the IC50 came out at 790 nM.

Take `COc1cccc2cc(C(=O)N[C@@H](CC(C)C)C(=O)NC3CC[C@@H](C)N(C(=O)Nc4ccncc4)CC3=O)oc12` (some centres not stated): the IC50 worked out at 290 nM.

In turn, `CCS[C@@H]1O[C@H](COC(=O)c2ccccc2)[C@H](OC(=O)c2ccccc2)[C@H](OC(=O)c2ccccc2)[C@H]1OC(=O)c1ccccc1` had an IC50 of 810 nM.

`CC(C)COc1ccc(Cl)cc1Cc1nc(-c2nc3ccc(CN4CCN(C)CC4)cc3[nH]2)co1`: the IC50 was 910 nM.

`Cc1cc(NS(=O)(=O)c2cccc(C(C)N3CCC(N4CCCC4)CC3)c2)ccc1C(C)C` (configuration not stated) displayed an IC50 of 820 nM.

As for `COc1ccc2nccc([C@@H](O)CN3CCC(NCCOc4cccc(C(F)(F)F)c4Cl)CC3)c2c1`, the IC50 amounted to 150 nM.

Take `CC1=C(C(=O)Nc2ccc(Cl)cc2)C(c2ccncc2)n2nc(C(F)(F)F)nc2N1` (configuration not stated): the IC50 is 930 nM.

As for `Cn1nc(-c2ccccc2F)c2cc(C(=O)Nc3cccnc3)sc21`, the IC50 was found to be 810 nM.

Turning to `OCCOCCNCc1cccc(C#Cc2cc3ncnc(Nc4ccc(OCc5cccc(F)c5)c(Cl)c4)c3s2)n1`, the IC50 worked out at 780 nM.

In turn, `COc1ccc(CNCc2ccccc2)cc1-c1ccc(OC)c(S(=O)(=O)NCCN2CCCC2)c1` showed an IC50 of 830 nM.

On to `CC(CCc1ccccc1)NCC(O)c1cccc(C(F)(F)F)c1` (configuration not stated), for which the half-maximal inhibitory concentration (IC50) was 710 nM.

Molecule `COc1ccc(-c2ccc([N+](=O)[O-])cc2C(=O)NCC(C)Oc2ccc(C(F)(F)F)cc2)cc1` (configuration not stated) showed an IC50 of 550 nM.

`O=C(Nc1ccc(OC2CCN(Cc3ccccc3)CC2)c(Cl)c1)c1ccco1` came in with an IC50 of 410 nM.

With `O=C(NCc1cccc(Cl)c1)c1ccc(CNC2CCN(Cc3ccccc3)CC2)cc1`, the IC50 was 880 nM.

As to `Cc1nn(C)cc1C(C)Nc1nncc(-c2ccc(C(F)(F)F)cc2)n1` (configuration not stated), the IC50 came to 250 nM.

`Clc1ccc(OCCC2CCN(CCCCCCN3CCCCC3)CC2)cc1Cl` returned an IC50 of 1140 nM.

Molecule `O=C(Nc1ccc(Cl)cc1)c1cccc2[nH]c(C(F)(F)F)nc12` came in with an IC50 of 760 nM.

For `NCC1CCCN1Cc1cccc(-c2ccc(-c3nc4ccc(C(F)(F)F)cc4[nH]3)s2)c1` (configuration not stated), the IC50 turned out to be 750 nM.

`CC[C@H](C)CNC(=O)c1cncc(-c2ccc(CNCC3CNCCCO3)cc2)c1` (some centres not stated) registered an IC50 of 1020 nM.

Consider `N#Cc1ccc(OCCN(Cc2ccccc2C(F)(F)F)c2ccc(C#N)c(C(F)(F)F)c2)cc1`, for which the IC50 is 280 nM.

The molecule `COc1cccc(C2CCCN(CCCCNC(=O)c3ccc(NC(=O)c4ccc(Cl)cc4)cc3)C2)c1` (configuration not stated) registered an IC50 of 860 nM.

Consider `COc1ccccc1N(C)CCNc1cc(C)nc(Nc2ccc(C)cc2)n1`, for which the IC50 was determined as 1570 nM.

Take `CCOC(=O)c1cnc2c(OC)cc(OC)c(Cl)c2c1Nc1cccc(C)c1`: the IC50 was 840 nM.

Regarding `COc1cc(Cc2cnc(N)nc2N)cc(OCCCC#N)c1OC`, the IC50 turned out to be 1030 nM.

Turning to `c1ccc(C2CCC(N3CCC(N4CCN(c5ccccc5)CC4)CC3)CC2)cc1` (configuration not stated), the IC50 amounted to 760 nM.

Molecule `Cc1nc(Nc2ccncc2)cc(-c2ccncc2)n1` returned an IC50 of 730 nM.

The record behind these values is PubChem BioAssay AID2305 (GlaxoSmithKline (GSK), 2010).
